One test addresses Topoisomerase II (Homo sapiens, UniProt P11388). Briefly: Topoisomerase II activity assay (relaxation of supercoiled DNA, gel). As to conditions: FIG. 1, Example 1 Compound at 100 μM.
Another test has as its system T-47D cells. Description: Caspase cascade activation (N-(Ac-DEVD)-N′-ethoxycarbonyl-R110 fluorogenic substrate) in T-47D cells. It is filed as cell-based, Human. As to conditions: T-47D; for Caspase activity Ratio T-47D (24 hr) / Caspase activity Ratio T-47D (48 hr): ratio of net RFU to control; for Ratio T-47D (48 hr): benzohydrazide analogs table.
The next test has as its target T1, Topoisomerase I (Homo sapiens, UniProt P11387).
T1 sequence (P11387 1-765): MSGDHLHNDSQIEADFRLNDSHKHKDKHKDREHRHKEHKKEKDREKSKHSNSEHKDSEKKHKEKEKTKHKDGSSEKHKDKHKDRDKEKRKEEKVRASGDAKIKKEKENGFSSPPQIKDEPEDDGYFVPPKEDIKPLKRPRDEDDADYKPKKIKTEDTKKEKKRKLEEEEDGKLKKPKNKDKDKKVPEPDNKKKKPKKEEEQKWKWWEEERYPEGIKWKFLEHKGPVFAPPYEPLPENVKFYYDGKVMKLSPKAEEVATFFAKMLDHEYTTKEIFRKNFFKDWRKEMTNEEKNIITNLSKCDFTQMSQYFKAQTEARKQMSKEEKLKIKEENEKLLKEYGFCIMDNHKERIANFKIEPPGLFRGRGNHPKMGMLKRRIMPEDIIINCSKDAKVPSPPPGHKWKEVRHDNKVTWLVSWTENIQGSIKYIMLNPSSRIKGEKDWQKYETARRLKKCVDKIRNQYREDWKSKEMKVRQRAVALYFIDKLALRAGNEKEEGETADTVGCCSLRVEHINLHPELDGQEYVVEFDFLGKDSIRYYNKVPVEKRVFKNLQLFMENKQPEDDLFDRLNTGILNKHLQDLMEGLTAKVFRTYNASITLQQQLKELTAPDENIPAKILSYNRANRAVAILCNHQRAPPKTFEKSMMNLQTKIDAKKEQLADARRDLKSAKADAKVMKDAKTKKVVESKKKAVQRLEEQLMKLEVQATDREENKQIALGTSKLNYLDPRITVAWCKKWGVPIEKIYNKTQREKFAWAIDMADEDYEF
Briefly: Topoisomerase I activity assay (relaxation of supercoiled DNA, gel). As to conditions: FIG. 2.

The test system of test [1] is tubulin (Cytoskeleton #ML113, MAP-rich). Briefly: Inhibition of tubulin polymerization (DAPI fluorescence). As to conditions: 30 minutes preincubation, 30 minutes at 37° C. In kind it is biochemical. How it is done:
Lyophilized tubulin (Cytoskeleton #ML113, 1 mg, MAP-rich) was assayed for the effect of the test compound on tubulin polymerization as measured by change in fluorescence for 4′,6-diamidino-2-phenylindole (DAPI) (Barron, D. M. et al. Analytical Biochem., 2003, 315, 49-56.). 1 μl of serial dilutions of each test compound (from 100×DMSO stock) was added in 96 well plate format and preincubated for 30 minutes with 94 ul of the non-GTP supplemented tubulin supernatant. 5 μl of DAPI/GTP solution was added to initiate polymerization and incubated for 30 minutes at 37° C. Fluorescence was read with excitation 350 nm, emission wavelength 485 nm on a Tecan Spectraflour Plus. Polymerized tubulin (DMSO and with the tubulin stabilizer Taxol® (paclitaxel)) gives a higher DAPI fluorescence as compared to non-polymerized tubulin (vinblastine and colchicine used to determine baseline).

Counter-ions that a name gives are not always drawn.

Chain of Topoisomerase II (P11388 whole entry): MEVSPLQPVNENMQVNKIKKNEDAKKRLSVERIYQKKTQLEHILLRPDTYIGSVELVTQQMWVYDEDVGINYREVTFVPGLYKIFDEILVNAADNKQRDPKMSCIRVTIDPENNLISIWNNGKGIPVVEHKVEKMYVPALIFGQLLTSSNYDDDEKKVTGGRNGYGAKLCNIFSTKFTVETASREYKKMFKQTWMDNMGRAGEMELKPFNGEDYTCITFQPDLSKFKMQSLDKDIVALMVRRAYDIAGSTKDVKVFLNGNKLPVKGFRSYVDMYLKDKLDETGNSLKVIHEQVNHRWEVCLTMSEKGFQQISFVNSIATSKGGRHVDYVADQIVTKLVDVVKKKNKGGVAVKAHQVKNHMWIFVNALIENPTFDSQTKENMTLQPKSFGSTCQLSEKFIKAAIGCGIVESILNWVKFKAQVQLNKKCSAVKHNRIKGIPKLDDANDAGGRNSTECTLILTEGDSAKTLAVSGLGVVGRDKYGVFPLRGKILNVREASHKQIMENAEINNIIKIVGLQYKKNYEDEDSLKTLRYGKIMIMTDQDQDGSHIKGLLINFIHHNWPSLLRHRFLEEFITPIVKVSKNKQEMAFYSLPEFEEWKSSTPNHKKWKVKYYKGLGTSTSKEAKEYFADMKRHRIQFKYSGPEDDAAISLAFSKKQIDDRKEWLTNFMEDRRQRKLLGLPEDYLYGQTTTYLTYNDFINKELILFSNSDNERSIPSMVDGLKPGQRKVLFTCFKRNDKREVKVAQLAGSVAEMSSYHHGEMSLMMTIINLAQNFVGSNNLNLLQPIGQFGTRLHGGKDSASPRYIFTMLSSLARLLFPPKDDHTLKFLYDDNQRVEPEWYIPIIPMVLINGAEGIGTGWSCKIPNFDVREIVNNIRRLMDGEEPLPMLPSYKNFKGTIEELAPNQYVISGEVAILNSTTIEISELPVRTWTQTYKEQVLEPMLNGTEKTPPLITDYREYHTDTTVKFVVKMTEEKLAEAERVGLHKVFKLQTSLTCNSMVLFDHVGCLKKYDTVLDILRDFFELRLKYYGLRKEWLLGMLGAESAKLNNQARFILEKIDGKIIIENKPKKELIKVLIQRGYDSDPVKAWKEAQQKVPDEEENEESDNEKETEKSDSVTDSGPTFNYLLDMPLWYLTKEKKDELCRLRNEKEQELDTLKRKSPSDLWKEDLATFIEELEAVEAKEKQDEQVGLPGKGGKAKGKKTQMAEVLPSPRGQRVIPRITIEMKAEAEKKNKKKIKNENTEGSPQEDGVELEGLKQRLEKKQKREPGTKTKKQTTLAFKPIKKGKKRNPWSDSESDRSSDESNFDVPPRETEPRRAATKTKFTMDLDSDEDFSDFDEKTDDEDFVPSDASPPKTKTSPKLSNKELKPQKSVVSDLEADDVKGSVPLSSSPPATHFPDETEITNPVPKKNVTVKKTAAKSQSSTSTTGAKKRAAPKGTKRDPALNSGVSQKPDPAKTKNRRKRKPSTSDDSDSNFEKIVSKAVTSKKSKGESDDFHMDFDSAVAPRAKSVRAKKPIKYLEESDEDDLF

For orientation: IC50 means the concentration at which inhibition is half-maximal. Read a low IC50 as higher potency. In the case of `COc1ccc(N(C)c2nc(Cl)nc3ccccc23)cc1` [Example 1], the “Inhibition of topoisomerase II-dependent relaxation of supercoiled DNA” value on Topoisomerase II is reported as “inhibition of DNA relaxation is substantial”. Moreover, the “Caspase activity Ratio T-47D (24 hr)” value in the test with T-47D cells was 8.7. The “Effect on topoisomerase I-dependent relaxation of supercoiled DNA” value on Topoisomerase I is on record as “no apparent effect”. Also, in test [1], the IC50 was below 0.5 µM.

On to `Cc1ccc(N(C)c2nc(Cl)nc3ccccc23)cc1` [Example 2, (2-Chloro-quinazolin-4-yl)-(4-methyl-phenyl)-methyl-amine], for which the “Caspase activity Ratio T-47D (24 hr)” value with T-47D cells is reported as 6.7. The same compound returned an IC50 in test [1] of 3 µM.

As to `CN(c1ccccc1)c1nc(Cl)nc2ccccc12` [Example 6, (2-Chloro-quinazolin-4-yl)-phenyl-methyl-amine], the “Caspase activity Ratio T-47D (24 hr)” value in the test on T-47D cells turned out to be 6.7. The compound further registered an IC50 in test [1] of 4 µM.

Regarding `COc1ccc(Nc2nc(Cl)nc3ccccc23)cc1` [Example 7, (2-Chloro-quinazolin-4-yl)-(4-methoxy-phenyl)-amine], in the test with T-47D cells, the “Caspase activity Ratio T-47D (24 hr)” value is 1.2 and the “Caspase activity Ratio T-47D (48 hr)” value worked out at 1.0. In addition, the IC50 in test [1] is above 50 µM.

For `COc1ccc(N(C)c2nc(N)nc3ccccc23)cc1` [Example 12, N^4-(4-Methoxy-phenyl)-N^4-methyl-quinazoline-2,4-diamine], in the test with T-47D cells, the “Caspase activity Ratio T-47D (24 hr)” value worked out at 5.3 and the “Caspase activity Ratio T-47D (48 hr)” value was 12.8. Moreover, it took 2 µM to reach half-maximal inhibition in test [1] (IC50).

For the compound `COc1ccc(N(C)c2nc(NC/C=C(\C)CCC=C(C)C)nc3ccccc23)cc1` [Example 13, N^2-(3,7-Dimethyl-octa-2,6-dienyl)-N^4-(4-methoxy-phenyl)-N^4-methyl-quinazoline-2,4-diamine], the “Caspase activity Ratio T-47D (24 hr)” value in the test with T-47D cells was 8.9. Half-maximal inhibition in test [1] (IC50) required 6 µM.

`COc1ccc(N(C)c2nc(Cl)nc3cc(OC)c(OC)cc23)cc1` [Example 20, (2-Chloro-6,7-dimethoxyquinazolin-4-yl)-(4-methoxy-phenyl)-methyl-amine]: in the test on T-47D cells, the “Caspase activity Ratio T-47D (24 hr)” value is on record as 13.1. Further, half-maximal inhibition in test [1] (IC50) was put at 3 µM.

As to `COc1ccc(N(C)c2ncnc3c2CCCC3)cc1` [Example 25], the “Caspase activity Ratio T-47D (48 hr)” value in the test with T-47D cells amounted to 5.8. The compound also came in with an IC50 in test [1] of 2 µM.

Consider `COc1ccc(OC)c(Nc2nc(Cl)nc3ccccc23)c1` [Example 31, (2-Chloro-quinazolin-4-yl)-(2,5-dimethoxy-phenyl)-amine], for which, in the test with T-47D cells, the “Caspase activity Ratio T-47D (24 hr)” value is reported as 8.0 and the “Caspase activity Ratio T-47D (48 hr)” value was found to be 14.7. In test [1], this compound returned a concentration for half-maximal inhibition (IC50) of 10 µM.

As for `Cc1ccc(N(C)c2ncnc3ccccc23)cc1` [Example 35, (4-Methyl-phenyl)-methyl-quinazolin-4-yl-amine], in the test with T-47D cells, the “Caspase activity Ratio T-47D (24 hr)” value was found to be 7.2. This compound also gave a concentration for half-maximal inhibition (IC50) in test [1] of 4 µM.

Take `COc1ccc(N(C)c2nc(Cl)nc3ccccc23)cn1` [Example 36, (2-Chloro-quinazolin-4-yl)-(6-methoxy-pyridin-3-yl)-methyl-amine]: the “Caspase activity Ratio T-47D (24 hr)” value in the test with T-47D cells is given as 6.7. In test [1], this compound showed an IC50 below 1 µM.

Consider `COc1ccc(N(C)c2nc(Cl)nc3ccccc23)c(OC)c1` [Example 41, (2-Chloro-quinazolin-4-yl)-(2,4-dimethoxy-phenyl)-methyl-amine], for which the “Caspase activity Ratio T-47D (48 hr)” value in the test on T-47D cells is given as 12.4. In test [1], this compound showed an IC50 below 1 µM.

Turning to `COc1ccc(OC)c(N(C)c2nc(Cl)nc3ccccc23)c1` [Example 42, (2-Chloro-quinazolin-4-yl)-(2,5-dimethoxy-phenyl)-methyl-amine], in the test with T-47D cells, the “Caspase activity Ratio T-47D (24 hr)” value came out at 8.6 and the “Caspase activity Ratio T-47D (48 hr)” value amounted to 14.6. In test [1], this compound came in with a 50% inhibitory concentration (IC50) of 5 µM.

For the compound `COc1cccc(N(C)c2nc(Cl)nc3ccccc23)c1` [Example 43, (2-Chloro-quinazolin-4-yl)-(3-methoxy-phenyl)-methyl-amine], in the test with T-47D cells, the “Caspase activity Ratio T-47D (48 hr)” value is given as 14.7. For the same compound, the midpoint of inhibition in test [1], the IC50, lay at 2 µM.

Take `COc1ccccc1N(C)c1nc(Cl)nc2ccccc12` [Example 44, (2-Chloro-quinazolin-4-yl)-(2-methoxy-phenyl)-methyl-amine]: the “Caspase activity Ratio T-47D (48 hr)” value with T-47D cells was 14.3. The same compound yielded a concentration for half-maximal inhibition (IC50) in test [1] of 10 µM.

With `COc1ccc(N(C)c2nccc3ccccc23)cc1` [Example 65, (Isoquinolin-1-yl)-(4-methoxy-phenyl)-methyl-amine], the “Caspase activity Ratio T-47D (48 hr)” value with T-47D cells is 13.7. Besides, the IC50 in test [1] stood at 10 µM.

As for `COc1ccc(N(C)c2nc(C)nc3ccccc23)cc1` [Example 72, (4-Methoxy-phenyl)-methyl-(2-methyl-quinazolin-4-yl)-amine hydrochloride], in the test with T-47D cells, the “Caspase activity Ratio T-47D (24 hr)” value is 9.0 and the “Caspase activity Ratio T-47D (48 hr)” value is listed as 7.4. In test [1], this compound showed a 50% inhibitory concentration (IC50) below 1 µM.

Turning to `COc1ccc(N(c2nc(C)nc3ccccc23)C(F)F)cc1` [Example 139, Difluoromethyl-(4-methoxy-phenyl)-(2-methyl-quinazolin-4-yl)-amine], the “Caspase activity Ratio T-47D (24 hr)” value with T-47D cells amounted to 5.6.

`COc1ccc(N(C)c2nc(C)nc3nccnc23)cc1` [Example 140, (4-Methoxy-phenyl)-(2-methyl-pteridin-4-yl)-methyl-amine]: the “Caspase activity Ratio T-47D (24 hr)” value with T-47D cells turned out to be 7.0.

As to `COc1cnc(Nc2nc(C)nc3ccccc23)nc1` [Example 141, (5-Methoxy-pyrimidin-2-yl)-(2-methyl-quinazolin-4-yl)-amine], the “Caspase activity Ratio T-47D (24 hr)” value in the test with T-47D cells is given as 1.2.

Regarding `CSc1nc(N(C)NC(=O)c2cccc(C)c2)c2ccccc2n1` [N′,3-dimethyl-N′-(2-(methylthio)quinazolin-4-yl)benzohydrazide], the “Ratio T-47D (48 hr)” value in the test on T-47D cells came to 12.7.

Turning to `COc1ccc(C(=O)NN(C)c2nc(C(F)(F)F)nc3ccccc23)cc1` [N′-(2-(trifluoromethyl)quinazolin-4-yl)-4-methoxy-N′-methylbenzohydrazide], in the test with T-47D cells, the “Ratio T-47D (48 hr)” value worked out at 13.1.

As to `CSc1nc(N(C)NC(=O)c2ccccc2)c2ccccc2n1` [N′-methyl-N′-(2-(methylthio)quinazolin-4-yl)benzohydrazide], in the test on T-47D cells, the “Ratio T-47D (48 hr)” value amounted to 14.7.

Take `CSc1nc(N(C)NC(=O)c2cccs2)c2ccccc2n1` [N′-methyl-N′-(2-(methylthio)quinazolin-4-yl)thiophene-2-carbohydrazide]: in the test with T-47D cells, the “Ratio T-47D (48 hr)” value is 10.1.

Regarding `COc1cc([C@@H]2c3cc4c(cc3[C@@H](O[C@@H]3O[C@@H]5CO[C@@H](C)O[C@H]5[C@H](O)[C@H]3O)[C@H]3COC(=O)[C@H]23)OCO4)cc(OC)c1O` [VP-16, etoposide, reference compound], the “Effect on topoisomerase I-dependent relaxation of supercoiled DNA” value on Topoisomerase I is reported as “no apparent effect”.

The values above are taken from patent US7618975B2, “4-arylamino-quinazolines and analogs as activators of caspases and inducers of apoptosis and the use thereof” (Myriad Pharmaceuticals, Inc., priority 2003, dated 2009).
